Measured values taken from PubChem BioAssay AID1996.
≈ marks a conversion by molar mass, not a printed value.

Conditions: buffer; pH 7.4; 200.0 µM

**Q.** Which solubility kinetic does the source give for `Cc1ccc(C(=O)NCCc2c[nH]c3ccccc23)s1` here?
**A.** Its solubility kinetic is > 42.7 µg/mL.

**Q.** With `COc1cccc(NS(=O)(=O)c2ccc3c(c2)CCN3C(C)=O)c1` as the molecule, how does the solubility kinetic read?
**A.** Its solubility kinetic is 3.3 µg/mL (≈ 9.53 µM).

**Q.** Which solubility kinetic does the source give for `CCc1cccc(NC(=S)N2CCC(c3ccccc3)C2)c1` (stereo unspecified) here?
**A.** Its solubility kinetic is 4.6 µg/mL (≈ 14.8 µM).

**Q.** For `COc1ccc2nc(SCC(=O)C(C)(C)C)[nH]c2c1`, which solubility kinetic is on record?
**A.** Its solubility kinetic is 30.9 µg/mL (≈ 111 µM).

**Q.** With `FC(F)(F)c1ccccc1CN1CCC(Cc2ccccc2)CC1` as the molecule, how does the solubility kinetic read?
**A.** The solubility kinetic was < 0.7 µg/mL.

**Q.** For `Cc1ccc(NCCC(=O)c2cccs2)cc1C`, which solubility kinetic is on record?
**A.** The solubility kinetic was 18.1 µg/mL (≈ 69.8 µM).

**Q.** With `CCOC(=O)c1c(C)n(C)c2cc(Br)c(OC)cc12` as the molecule, how does the solubility kinetic read?
**A.** The solubility kinetic was < 0.7 µg/mL.

**Q.** For `COc1ccc(C(=O)Nc2cc(C(=O)O)cc(C(=O)O)c2)cc1Cl`, which solubility kinetic is on record?
**A.** Its solubility kinetic is > 52.5 µg/mL.

**Q.** For `CCN(Cc1ccncc1)C(=O)c1ccc(Br)o1`, which solubility kinetic is on record?
**A.** The solubility kinetic was > 46.4 µg/mL.

**Q.** With `Cc1cccc(NC(=O)COC(=O)CC2CCCC2)c1C` as the molecule, how does the solubility kinetic read?
**A.** Its solubility kinetic is > 43.4 µg/mL.

**Q.** Which solubility kinetic does the source give for `CN(C)c1nc2c(N)ncnc2n1[C@H]1O[C@@H](CO)[C@H](O)[C@@H]1O` here?
**A.** The solubility kinetic was > 46.5 µg/mL.

**Q.** For `Cl.Fc1ccc(-c2ccc(CNCc3ccccn3)o2)cc1`, which solubility kinetic is on record?
**A.** The solubility kinetic was 33.9 µg/mL.

**Q.** Which solubility kinetic does the source give for `O=C(Nc1cc(S(=O)(=O)Nc2ccc(Cl)cc2)ccc1O)c1ccc(F)cc1F` here?
**A.** Its solubility kinetic is 4.2 µg/mL (≈ 9.57 µM).

**Q.** For `CCOC(=O)c1c(C)[nH]c(C(=O)OCc2ccc(F)cc2)c1C`, which solubility kinetic is on record?
**A.** Its solubility kinetic is 2 µg/mL (≈ 6.26 µM).

**Q.** With `COc1ccc(Oc2ccccc2C#N)cc1` as the molecule, how does the solubility kinetic read?
**A.** Its solubility kinetic is 9.9 µg/mL (≈ 44 µM).

**Q.** Which solubility kinetic does the source give for `Cc1nc(NC(=O)COC(=O)[C@@H](NC(=O)c2ccco2)C(C)C)c(Cl)cc1Cl` here?
**A.** The solubility kinetic was > 64.2 µg/mL.

**Q.** Which solubility kinetic does the source give for `CCOc1ccc2oc(C(=O)N3CC(C)OC(C)C3)c(C)c2c1` (stereo unspecified) here?
**A.** The solubility kinetic was 41.6 µg/mL (≈ 131 µM).

**Q.** Which solubility kinetic does the source give for `Cc1ccc(NC(=O)CN2CCCCCC2)cc1[N+](=O)[O-]` here?
**A.** Its solubility kinetic is 1.2 µg/mL (≈ 4.12 µM).

**Q.** With `CCOc1ccccc1NC(=O)NCCN1CCCCC1` as the molecule, how does the solubility kinetic read?
**A.** The solubility kinetic was > 43.7 µg/mL.

**Q.** Which solubility kinetic does the source give for `C=CCOc1ccccc1CNc1ccc2[nH]c(=O)[nH]c2c1` here?
**A.** Its solubility kinetic is > 44.3 µg/mL.

**Q.** For `COc1ccccc1OCC(=O)NC1CCCCCCC1`, which solubility kinetic is on record?
**A.** Its solubility kinetic is 40.8 µg/mL (≈ 140 µM).

**Q.** For `NS(=O)(=O)c1ccc(CCN2C(=O)CCC2=O)cc1`, which solubility kinetic is on record?
**A.** Its solubility kinetic is > 42.3 µg/mL.

**Q.** With `O=C(NCCc1ccc(F)cc1)c1ccc2nccnc2c1` as the molecule, how does the solubility kinetic read?
**A.** The solubility kinetic was 41.6 µg/mL (≈ 141 µM).

**Q.** Which solubility kinetic does the source give for `C=CCCC(=O)N1CCCC(Cc2cccc(Cl)c2)(C(=O)OCC)C1` (stereo unspecified) here?
**A.** The solubility kinetic was > 54.6 µg/mL.

**Q.** For `CC(C)N1CN(c2ccccc2)C(=S)N(c2ccccc2)C1`, which solubility kinetic is on record?
**A.** The solubility kinetic was > 46.7 µg/mL.

**Q.** For `Cc1ccc(C(=O)/C=C/c2ccccc2[N+](=O)[O-])cc1`, which solubility kinetic is on record?
**A.** The solubility kinetic was 6.8 µg/mL (≈ 25.4 µM).

**Q.** Which solubility kinetic does the source give for `COc1ccc(S(=O)(=O)N(CCC#N)Cc2ccco2)cc1OC` here?
**A.** The solubility kinetic was 28.2 µg/mL (≈ 80.5 µM).

**Q.** For `C/C(=N\O)c1ccc2c(c1)CC(C)O2` (stereo unspecified), which solubility kinetic is on record?
**A.** Its solubility kinetic is > 28.7 µg/mL.

**Q.** With `O=C(Nc1ccsc1C(=O)O)c1ccccc1Cl` as the molecule, how does the solubility kinetic read?
**A.** The solubility kinetic was > 42.3 µg/mL.

**Q.** Which solubility kinetic does the source give for `COc1ccc(NC(=O)c2ccc(NC(=O)CN3CCN(c4ccccc4)CC3)cc2)cc1` here?
**A.** The solubility kinetic was 1.4 µg/mL (≈ 3.15 µM).

**Q.** For `CC1CC(OC(=O)c2ccccc2)(c2ccccc2)C(C)CN1C` (stereo unspecified), which solubility kinetic is on record?
**A.** Its solubility kinetic is > 48.5 µg/mL.

**Q.** Which solubility kinetic does the source give for `O=C(NCCCN1CCOCC1)c1cc2ccccc2cc1O` here?
**A.** The solubility kinetic was > 47.2 µg/mL.

**Q.** With `CC12CCC(C(=O)N(CC3CO3)C1=O)C2(C)C` (stereo unspecified) as the molecule, how does the solubility kinetic read?
**A.** The solubility kinetic was > 35.6 µg/mL.

**Q.** With `O=C(OCC(=O)N1CCOCC1)c1cc(=O)[nH]c2ccccc12` as the molecule, how does the solubility kinetic read?
**A.** Its solubility kinetic is > 47.4 µg/mL.

**Q.** Which solubility kinetic does the source give for `COc1ccc(Br)cc1CN1CCN(c2ncccn2)CC1` here?
**A.** Its solubility kinetic is 38.8 µg/mL (≈ 107 µM).

**Q.** For `S=C1NCN(C2CCCCC2)CN1c1ccccc1`, which solubility kinetic is on record?
**A.** Its solubility kinetic is > 41.3 µg/mL.

**Q.** For `Cc1cc(C)cc(OCC(O)CN2CC(C)OC(C)C2)c1.Cl` (stereo unspecified), which solubility kinetic is on record?
**A.** Its solubility kinetic is > 49.5 µg/mL.

**Q.** Which solubility kinetic does the source give for `COc1ccc(CC(C)CC(=O)Nc2ccc(OC)cc2)cc1` (stereo unspecified) here?
**A.** Its solubility kinetic is 4.6 µg/mL (≈ 14.7 µM).

**Q.** Which solubility kinetic does the source give for `C#CCOc1ccc(/C=C2/C(=O)ON=C2C)cc1Br` here?
**A.** Its solubility kinetic is 42.7 µg/mL (≈ 133 µM).

**Q.** With `CCOc1cc(/C=C2\N=C(C)OC2=O)cc(Cl)c1OCC(=O)OC` as the molecule, how does the solubility kinetic read?
**A.** The solubility kinetic was 23.1 µg/mL (≈ 65.3 µM).

**Q.** For `O=C(COc1ccccc1)NCCSCc1ccccc1Cl`, which solubility kinetic is on record?
**A.** The solubility kinetic was 14.7 µg/mL (≈ 43.8 µM).

**Q.** Which solubility kinetic does the source give for `CC(C)CCN(C(=S)Nc1cccc(F)c1)C1CCN(C(C)C)CC1` here?
**A.** The solubility kinetic was 48.2 µg/mL (≈ 132 µM).

**Q.** With `CCCCc1nc2sc3c(c2c(=O)[nH]1)CC(C)(C)OC3` as the molecule, how does the solubility kinetic read?
**A.** The solubility kinetic was 2.3 µg/mL (≈ 7.87 µM).

**Q.** For `O=C(CSc1cccc[n+]1[O-])NCC1CCCCC1`, which solubility kinetic is on record?
**A.** The solubility kinetic was > 42.1 µg/mL.

**Q.** For `Cc1ccc(S(=O)(=O)N2CCOCC2)cc1NC(=O)CN1C(=O)NC(C)(c2ccc(Cl)cc2Cl)C1=O` (stereo unspecified), which solubility kinetic is on record?
**A.** The solubility kinetic was 46.1 µg/mL (≈ 83 µM).

**Q.** Which solubility kinetic does the source give for `CCNC(=S)N(Cc1cc2c(C)ccc(C)c2[nH]c1=O)C1CCCC1` here?
**A.** The solubility kinetic was < 0.3 µg/mL.

**Q.** With `Cc1ccc(CNCCc2ccccc2F)s1` as the molecule, how does the solubility kinetic read?
**A.** The solubility kinetic was 33.2 µg/mL (≈ 133 µM).

**Q.** Which solubility kinetic does the source give for `CCN(CC)CCN=Cc1c(O)n(Cc2ccccc2)c(=O)[nH]c1=O` here?
**A.** The solubility kinetic was > 51.7 µg/mL.

**Q.** With `Cc1ccc(Sc2cc(C)nc(-c3ccccn3)n2)cc1` as the molecule, how does the solubility kinetic read?
**A.** The solubility kinetic was 36.8 µg/mL (≈ 125 µM).

**Q.** Which solubility kinetic does the source give for `CN1CCN(/N=C/c2ccc(N(C)c3ccccc3)cc2)CC1` here?
**A.** Its solubility kinetic is > 46.3 µg/mL.

**Q.** For `O=C(NC(=S)Nc1ccccc1N1CCCC1)c1ccco1`, which solubility kinetic is on record?
**A.** The solubility kinetic was 25.3 µg/mL (≈ 80.2 µM).

**Q.** With `NC(=O)Nc1ccc(C(=O)OCC(=O)c2c[nH]c3ccccc23)cc1` as the molecule, how does the solubility kinetic read?
**A.** Its solubility kinetic is 4.2 µg/mL (≈ 12.5 µM).

**Q.** Which solubility kinetic does the source give for `Cc1cc(SCc2ccccc2Cl)nc(=O)[nH]1` here?
**A.** Its solubility kinetic is 30 µg/mL (≈ 112 µM).

**Q.** With `Cc1ccc(NC(=S)N2CCCCC2)cc1C` as the molecule, how does the solubility kinetic read?
**A.** Its solubility kinetic is 30.5 µg/mL (≈ 123 µM).

**Q.** For `COc1ccccc1NC(=O)CCSc1nc(C)cs1`, which solubility kinetic is on record?
**A.** The solubility kinetic was > 46.3 µg/mL.

**Q.** Which solubility kinetic does the source give for `OCCNCCc1c[nH]c2ccc(OCc3ccccc3)cc12` here?
**A.** The solubility kinetic was > 46.6 µg/mL.
